# US12636322B2, “Bacterial strain with high cellulolytic activity” (INSTITUT NATIONAL SUPERIEUR DES SCIENCES AGRONOMIQUES DE …, priority 2021, dated 2026)
# Tested on: F. succinogenes HC4
# Assay: Phenotypic tests for antibiotic resistance
# Type: cell-based, Fibrobacter succinogenes
# Conditions: liquid filter paper semi-synthetic medium, anaerobic, 48 hours at 38° C.
# Protocol: Eight antibiotics were tested according to EFSA recommendations for Gram-negative bacteria (31). Before being added to the filter paper semi-synthetic medium, the antibiotics were sterilized by filtration (0.22 μm filters). 24-hours cultures of strain HC4 were inoculated into media containing each antibiotic. A positive control without antibiotics was inoculated from the same culture of strain HC4 and two cultures were prepared for each condition. After 48 hours of incubation at 38° C., the observation of filter paper degradation allowed estimating the bacterial growth. In case of no degradation, a sample of liquid was taken and frozen at −20° C. for further determination of succinate production.
compound,measurement,value
CN(C)[C@@H]1C(=O)C(C(N)=O)=C(O)[C@@]2(O)C(=O)C3=C(O)c4c(O)cccc4[C@@](C)(O)[C@H]3C[C@@H]12 [Tetracyclin],Concentrations to inhibit growth,1 mg/L
Gentamicin,Concentrations to inhibit growth,128 mg/L
Colistin,Concentrations to inhibit growth,64 mg/L
[H]/N=C(/N)N[C@H]1[C@H](O)[C@@H](O)[C@H](O[C@@H]2O[C@@H](C)[C@](O)(C=O)[C@H]2O[C@@H]2O[C@@H](CO)[C@H](O)[C@@H](O)[C@@H]2NC)[C@@H](N/C(N)=N\[H])[C@@H]1O [Streptomycin],Concentrations to inhibit growth,2048 mg/L
C[C@@H]1O[C@@H]1P(=O)(O)O [Fosfomycin],Concentrations to inhibit growth,512 mg/L
NC[C@H]1O[C@H](O[C@H]2[C@H](O)[C@@H](O[C@H]3O[C@H](CO)[C@@H](O)[C@H](N)[C@H]3O)[C@H](N)C[C@@H]2N)[C@H](O)[C@@H](O)[C@@H]1O [Kanamycin],Concentrations to inhibit growth,8000 mg/L
CC1(C)S[C@@H]2[C@H](NC(=O)[C@H](N)c3ccccc3)C(=O)N2[C@H]1C(=O)O [Ampicillin],Concentrations to inhibit growth,32 mg/L
